Literature values in patent US6696575B2, “Biodegradable, electrically conducting polymer for tissue engineering applications” (Board of Regents, The University of Texas System, priority 2001, dated 2004).

Key:
mouse = conditions: oral administration
rat = conditions: oral administration
rat sciatic nerve = conditions: in vivo

| Compound | one-half lethal dose (LD50) (rat) | further results |
| --- | --- | --- |
| OCCCO [Propanediol, 1,3-propanediol] | – | one-half lethal dose (LD50) (mouse): 5000 mg/kg |
| CCO [ethanol] | 7000 mg/kg | – |
| CCCCCC(=O)O [hexanoic acid] | 3000 mg/kg | – |
| polypyrrole [PP] | – | tissue response on implantation (rat sciatic nerve): provoked little adverse tissue response |
